Like-named read-outs stand apart in the source and are kept apart here.
Tests used:
A549 lung cancer cells = conditions: for Tumour Growth Inhibition (TGI): A549 tumours in nude mice, cisplatin 5 mg/kg; for Tumour Growth Inhibition (TGI) / mean tumour volume on day 21: oltipraz 100 mg/kg; for mean tumour volume on day 1: day 1 (initiation of treatment); for mean tumour volume on day 21: cisplatin 5 mg/kg day 2, vehicle control 536 mm^3
Procedure: (§1) Initiation of treatment was designated day 1.
A549 human lung cancer cells were obtained from ATCC. These cells were grown in F-12 supplemented with 10% Fetal Calf Serum (FCS), penicillin and streptomycin, and 2 mM L-Glutamine. Cells were sub-cultured by removing the medium, rinsing twice with sterile calcium-free and magnesium-free phosphate buffered saline (PBS) and adding 1 to 2 ml of 0.25% trypsin and 0.03% EDTA solution. The flask was allowed to sit at 37° C. until the cells detached. Cells were then sub-cultured at a ratio of 1:3.
(§2) Animals were acclimatized prior to study commencement.
Tumours were measured once every two days with micro-calipers, and tumour volume was calculated as (length×width)^3π/3. The tumour growth index (TGI) was calculated using the formula 100−(Vc*100/Vt), where Vc is the mean volume of the tumours in the control group and Vt is the mean volume of the tumours in the test group.
Tumour volumes were calculated from the length and width measurements taken on alternating days by calculating the mean radius (r), which was the sum of length and width divided by 4, and using the formula 4/3 πr^3 to calculate the volume.

[1] = oltipraz 100 mg/kg po days 1, 3, 8, 10, given with Cetuximab
Source text: as §1, §2
Groups were compared using the One-Way ANOVA method.

[2] = formulated with CMC

Structure (SMILES) | Tumour Growth Inhibition (TGI) (A549 lung cancer cells) [%] | mean tumour volume on day 1 (A549 lung cancer cells) [mm^3] | mean tumour volume on day 21 (A549 lung cancer cells) [mm^3] | average weight gain, % of starting weight by day 21 (female nude mice with A549 tumours, cisplatin 5 mg/kg sc day 2, oltipraz 100 mg/kg po (alone days 1, 3, 8, 10; combination days 1 and 3), day 21) [%] | toxicity based on observations of survival and weight change (oltipraz alone 100 mg/kg po days 1, 3, 8, 10) | toxicity based on observations of survival and weight change [1] | amount that can be administered without significant toxicity resulting [2]
N.N.[Cl][Pt][Cl] [cisplatin, cis-diamminedichloridoplatinum(II)] | 48.8 | 93 | 275 |  |  |  | 
Cc1c(-c2cnccn2)ssc1=S [oltipraz, 4-methyl-5(2-pyrazinyl)-3H-1,2-dithiole-3-thione] | 62.3 | 93 | 200 | 4.9 | no evidence of toxicity | no evidence of toxicity | up to 2000 mg/kg

Reference: patent US20110142829A1, “ANTI-TUMOUR COMPOSITIONS AND METHODS” (priority 2008, published 2011)
